Assay results published in US8399509B2, “Glucopyranoside derivatives” (Merck Patent Gesellschaft mit beschrankter Haftung, priority 2008, dated 2013).
Each block holds one molecule with its values, some of them ahead of it.

Key:
SGLT1 = molecular target: T1, SGLT1 (Homo sapiens, UniProt P13866); test: 14C-AMG uptake in BHK cells transfected with SGLT1; type: cell-based; conditions: 50 μM AMG, 37° C., 90 min
T1 construct: expressed in transfected cells
T1 sequence (P13866 1-664): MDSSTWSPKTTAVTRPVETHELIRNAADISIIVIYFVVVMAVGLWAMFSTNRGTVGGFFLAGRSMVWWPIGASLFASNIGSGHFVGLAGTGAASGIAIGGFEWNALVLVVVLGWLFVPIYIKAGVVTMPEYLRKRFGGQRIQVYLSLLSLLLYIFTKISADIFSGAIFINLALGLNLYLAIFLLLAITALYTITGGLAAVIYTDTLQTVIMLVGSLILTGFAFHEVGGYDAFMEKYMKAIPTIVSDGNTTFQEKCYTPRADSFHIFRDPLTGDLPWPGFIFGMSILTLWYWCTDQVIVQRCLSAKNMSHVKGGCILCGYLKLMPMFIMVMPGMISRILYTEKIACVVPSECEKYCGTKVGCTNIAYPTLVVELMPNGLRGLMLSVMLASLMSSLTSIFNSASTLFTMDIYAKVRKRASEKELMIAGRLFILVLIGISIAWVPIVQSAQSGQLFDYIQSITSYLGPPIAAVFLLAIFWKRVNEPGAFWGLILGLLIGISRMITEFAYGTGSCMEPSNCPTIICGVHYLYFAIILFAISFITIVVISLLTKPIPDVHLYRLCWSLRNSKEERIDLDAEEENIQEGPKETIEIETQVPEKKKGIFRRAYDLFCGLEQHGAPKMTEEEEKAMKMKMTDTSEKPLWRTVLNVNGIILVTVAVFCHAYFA
Source text: (§1) The compounds can be tested for their SGLT inhibition properties by means of BHK cells expressing SGLT1 and SGLT2. The production of the cells and the testing can be carried out as described below.
Construction and Expression of SGLT1 in BHK Cells
To construct the SGLT1 expression vector (KL225), the SLC5A1 gene (homologous to NM_000343) was amplified from a cDNA library using standard PCR technology and cloned over NheI/XhoI sites into the pcDNA3.1 expression vector (Invitrogen) containing neomycin as a selection marker. In this vector, transcription uses the enhancer/promoter of human cytomegalovirus.
(§2) The final vector KL225 together with an additional vector containing a dihydrofolate reductase gene as a selection marker was introduced into cells. Transfection into BHK21 cells (ATCC CCL-10), cultivated in DMEM medium (GIBCO/BRL), supplemented with 10% foetal calf serum (FCS) and 20 mM glutamine, was carried out using calcium phosphate transfections according to Graham, F. L. and van der Ebb, A. J. (1973), Virology 52: 456 with 5-20 μg of uncut plasmids for 10^7 cells. Stable transfectants were selected in medium containing 1 mg/ml of G418 (GIBCO/BRL) and 20-5000 nM methotrexate as final concentration, where only cells which expressed the neomycin gene and overexpressed the dhfr gene were able to grow. After growth for 2-3 weeks, the cells were cloned (0.5 cells/well) and the clones were investigated for SGLT expression in radioactivity uptake tests.
(§3) Method of SGLT1/2 Activity Measurement
(§4) The uptake of ^14C-α-methyl-D-glucopyranoside (AMG) in, for example, Xenopus oocytes injected with the corresponding cRNA has been described in principle (for example Wen-Sen Lee et al. (1994), J. Biol. Chem. 269, 12032-12039; Guofeng You et al. (1995), J. Biol. Chem. 270, 29365-29371).
(§5) A 96-well cell-based assay was developed and adapted to HTS requirements:
(§6) BHK cells (transfected with SGLT1 or SGLT2) were seeded into 96-well microtitre plates (Cultureplates, Perkin Elmer). After at least 24 h, medium was removed, and the cell layer was washed with assay buffer (140 mM NaCl, 2 mM KCl, 1 mM CaCl2, 1 mM MgCl2, 10 mM HEPES, 5 mM Tris, adjusted to pH 7.4 using 1 M KOH). After addition of 40 μl of assay buffer, 50 μl of AMG (50 μM for SGLT1 and 2 mM for SGLT2) in the presence or absence of compounds, the cells were incubated in a total volume of 100 μl at 37° C. for 90 min. Supernatant was removed by suction and discarded. Cells were washed and lysed by addition of 50 μl of water. After 10 min at room temperature, 200 μl of Micrsoscint 40 (Perkin Elmer) were added. The radioactivity was counted in a Topcount microplate scintillation counter (Perkin Elmer). The non-specific uptake was determined in sodium-free assay buffer (266 mM sucrose, 2 mM KCl, 1 mM CaCl2, 1 mM MgCl2, 10 mM HEPES, 5 mM Tris, adjusted to pH 7.4 using 1 M KOH).

SGLT2 = molecular target: T2, SGLT2 (Homo sapiens, UniProt P31639); test: 14C-AMG uptake in BHK cells transfected with SGLT2; type: cell-based; conditions: 2 mM AMG, 37° C., 90 min
T2 construct: expressed in transfected cells
T2 sequence (P31639 1-672): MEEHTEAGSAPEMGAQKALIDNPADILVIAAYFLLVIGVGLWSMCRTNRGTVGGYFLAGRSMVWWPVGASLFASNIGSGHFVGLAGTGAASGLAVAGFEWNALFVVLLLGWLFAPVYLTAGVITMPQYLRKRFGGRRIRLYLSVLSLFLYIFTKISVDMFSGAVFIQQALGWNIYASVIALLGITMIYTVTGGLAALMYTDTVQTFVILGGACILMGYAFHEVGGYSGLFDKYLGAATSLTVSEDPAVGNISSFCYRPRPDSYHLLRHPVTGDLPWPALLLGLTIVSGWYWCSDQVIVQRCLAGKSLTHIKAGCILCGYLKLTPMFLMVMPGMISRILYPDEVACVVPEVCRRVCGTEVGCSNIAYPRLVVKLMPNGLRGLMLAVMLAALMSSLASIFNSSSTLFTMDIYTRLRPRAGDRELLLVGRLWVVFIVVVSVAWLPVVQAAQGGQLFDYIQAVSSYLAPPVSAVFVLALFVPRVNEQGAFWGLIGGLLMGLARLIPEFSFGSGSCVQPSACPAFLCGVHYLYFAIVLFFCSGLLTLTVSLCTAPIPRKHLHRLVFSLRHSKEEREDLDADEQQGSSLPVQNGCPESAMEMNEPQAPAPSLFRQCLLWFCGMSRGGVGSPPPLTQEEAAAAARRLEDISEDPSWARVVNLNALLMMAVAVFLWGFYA
Source text: as §1
Construction and Expression of SGLT2 in BHK Cells
To construct the SGLT2 expression vector (KL224), the SLC5A2 gene (homologous to NM_003041) was amplified from a cDNA library using standard PCR technology and cloned over NheI/XhoI sites into PCI-neo expression vector (Promega) containing neomycin as a selection marker. In this vector, transcription uses the enhancer/promoter of human cytomegalovirus and the SV40 polyadenylation signal.
as §2, with “KL224” for “KL225”
as §3, §4, §5, §6

Molecule: 5-(β-D-Glucopyranos-1-yl)-3-(4-methoxyphenyl)benzofuran [Compound A7]
IC50 (SGLT1): > 10 µM
IC50 (SGLT2): 1 to 10 µM

Molecule: 5-(β-D-glucopyranos-1-yl)-2-(4-methoxyphenyl)benzofuran [Compound A8]
IC50 (SGLT1): > 10 µM
IC50 (SGLT2): > 10 µM

Molecule: 6-(β-D-glucopyranos-1-yl)-1R-(4-methoxyphenyl)indane [Compound A3]
IC50 (SGLT1): > 10 µM
IC50 (SGLT2): > 10 µM

Molecule: COc1ccc(C2CCc3ccc([C@@H]4O[C@H](CO)[C@@H](O)[C@H](O)[C@H]4O)cc32)cc1 (stereo partly drawn) [Compound A1, 6-(β-D-glucopyranos-1-yl)-1-(4-methoxyphenyl)indane]
IC50 (SGLT1): > 10 µM
IC50 (SGLT2): 0.01 to 1 µM

Molecule: COc1ccc([C@@H]2CCc3ccc([C@@H]4O[C@H](CO)[C@@H](O)[C@H](O)[C@H]4O)cc32)cc1 [Compound A2, 6-(β-D-glucopyranos-1-yl)-1S-(4-methoxyphenyl)indane]
IC50 (SGLT1): > 10 µM
IC50 (SGLT2): 0.01 to 1 µM

Molecule: CCOc1ccc(C2CCc3ccc([C@@H]4O[C@H](CO)[C@@H](O)[C@H](O)[C@H]4O)cc32)cc1 (stereo partly drawn) [Compound A4, 6-(β-D-Glucopyranos-1-yl)-1-(4-ethoxyphenyl)indane]
IC50 (SGLT1): > 10 µM
IC50 (SGLT2): 0.01 to 1 µM

Molecule: COc1ccc(C2CCCc3ccc([C@@H]4O[C@H](CO)[C@@H](O)[C@H](O)[C@H]4O)cc32)cc1 (stereo partly drawn) [Compound A5, 7-(β-D-Glucopyranos-1-yl)-1-(4-methoxyphenyl)-1,2,3,4-tetrahydro-naphthalene]
IC50 (SGLT1): > 10 µM
IC50 (SGLT2): 0.01 to 1 µM

Molecule: COc1ccc(C2=CCCc3ccc([C@]4(OC)O[C@H](CO)[C@@H](O)[C@H](O)[C@H]4O)cc32)cc1 [Compound A6, 7-(1-Methoxy-D-glucopyranos-1-yl)-1-(4-methoxyphenyl)-3,4-dihydronaphthalene]
IC50 (SGLT1): > 10 µM
IC50 (SGLT2): > 10 µM

The remaining lines, values ahead:

IC50 (SGLT1): > 10 µM
IC50 (SGLT2): > 10 µM
Molecule: 6-(β-D-glucopyranos-1-yl)-3R-(4-methoxyphenyl)indane [Compound A14]

IC50 (SGLT1): > 10 µM
IC50 (SGLT2): 0.01 to 1 µM
Molecule: COc1ccc(C2COc3ccc([C@@H]4O[C@H](CO)[C@@H](O)[C@H](O)[C@H]4O)cc32)cc1 (stereo partly drawn) [Compound A9, 5-(β-D-Glucopyranos-1-yl)-3-(4-methoxyphenyl)-2,3-dihydrobenzofuran]

IC50 (SGLT1): > 10 µM
IC50 (SGLT2): > 10 µM
Molecule: CCOc1ccc(-n2ccc3ccc([C@@H]4O[C@H](CO)[C@@H](O)[C@H](O)[C@H]4O)cc32)cc1 [Compound A12, 6-(β-D-Glucopyranos-1-yl)-1-(4-ethoxyphenyl)indole]

IC50 (SGLT1): > 10 µM
IC50 (SGLT2): 0.01 to 1 µM
Molecule: COc1ccc([C@@H]2COc3ccc([C@@H]4O[C@H](CO)[C@@H](O)[C@H](O)[C@H]4O)cc32)cc1 [Compound A13]
